Patent US20210022305A1, “A HUMULUS PLANT VARIANT AND EXTRACTS THEREOF” (BOMI LLC, priority 2018, published 2021)
“And” between values parts separate entries of the source, which are not always exact repeats. Equal entries are not always repeated.

System: CB2
Assay: CBD bioactivity test (monoclonal antibody test based on CB2 affinity)
Type: binding
Details: CBD samples isolated from ImmunAG
Protocol: All chemicals and solutions were obtained from Sigma-Aldrich (St. Louis, Mo.). All cell cultures were obtained from Creative Bioarray, Shirley, N.Y. CBD bioactivity was measured using practices described in Cushing et al., “Measuring the Bioactivity of Phytocannabinoid Cannabidiol from Cannabis Sources, and a Novel Non-Cannabis Source,” Journal of Medical Phyto.
CBD Samples and Bioactivity Testing. […] Following isolation, bioactivity was measured using procedures outlined in Cushing et al., “Measuring the Bioactivity of Phytocannabinoid Cannabidiol from Cannabis Sources, and a Novel Non-Cannabis Source,” Journal of Medical Phyto.
The bioactivity testing procedure used in this experiment, as described in Cushing et al., “Measuring the Bioactivity of Phytocannabinoid Cannabidiol from Cannabis Sources, and a Novel Non-Cannabis Source,” Journal of Medical Phyto. Research 10 (2018), which is hereby incorporated by reference in its entirety, consisted of a monoclonal antibody test whose validity was based on the CB2 affinity of CBD samples.

With `C=C(C)C1CCC(C)=CC1c1c(O)cc(CCCCC)cc1O` (stereo not drawn) [CBD, 2-(6-isopropenyl-3-methyl-2-cyclohexen-l-yl)-5-pentyl-1,3-benzenediol] the Bioactivity was 0.80 and 0.90 and 0.95.
